Measurements as given in US20230227838A1, “ENHANCED CELL SURVIVAL AGAINST BIOTIC AND ABIOTIC STRESSES THROUGH SALICYLICK ACID-INDUCED NPR1 CONDENSATES” (priority 2020, published 2023).

Legend:
[1] = tested on: cell death induced by heat shock, oxidative and DNA damage stresses; settings: 1 mM SA 24 hr before stress; WT, not in npr1-2
Method: (§1) Chemical treatment, pathogen infection and cell death assays. For soil-grown Arabidopsis plants, SA treatment was carried out with spray at indicated concentrations. For seedlings grown vertically on solid 1/2 MS medium for 10-12 days, SA […] treatment (1 mM), with or without the proteasome inhibitor MG132 (50 μM), and protein synthesis […] inhibitor cycloheximide (100 μM) was done by submerging them in solutions for indicated periods. Unless otherwise stated, in N. benthamiana, SA treatment was done by infiltrating leaves 24 hr after agroinfiltration. SA pre-treatment of mature Arabidopsis was done by spray 24 hr before bacterial infection or cell death induction. For bacterial infections, Pseudomonas syringae pv. maculicola ES4326 carrying AvrRpt2 or AvrRpm1 effectors, and Pf Pf0-1 carrying functional AvrRps4 or non-functional AvrRps4KRVY-AAAA effectors were grown for 2 days on solid King's B medium supplemented with appropriate antibiotics. […] Bacteria were pressure infiltrated into mature leaves of three-week-old Arabidopsis plants and cell death or bacterial growth were assessed at indicated times post inoculation (hpi, hours post inoculation; dpi, days post inoculation). […]

[2] = tested on: cell death triggered by in planta expression of the effector, AvrRpt2; settings: SA treatment before dexamethasone induction
Method: as §1

[3] = tested on: Psm ES4326/AvrRpt2; test: Bacterial growth assay in infected leaves; assay type: in vivo, Arabidopsis thaliana; settings: SA pretreatment at 0.5 and 1 mM; WT plants, not in npr1-2 mutant
Source text: Chemical treatment, pathogen infection and cell death assays. […] At 2 days, the bacterial colonies were scored.

[4] = tested on: ubiquitinated proteins; test: Accumulation of ubiquitinated proteins (α-Ub immunoblot of total protein); assay type: in vivo, Arabidopsis thaliana; settings: WT; absent in npr1-2; SA for 6 hr
Method: Protein analysis and IP. Recombinant protein analysis was performed using transient expression in N. benthamiana, or stable over-expression in transgenic Arabidopsis, or expression in E. coli. Total protein extraction from plants was performed by homogenizing leaf tissue in the plant extraction buffer [50 mM Tris-HCl (pH 7.5), 150 mM NaCl, 5 mM EDTA, 0.2% Triton X-100, 0.2% Nonidet P-40] supplemented with 1 mM PMSF, 100 μM MG132, and EDTA-free protease inhibitor cocktail (Roche). For ubiquitinated protein analysis in plants, 100 μM of DUB (deubiquitinase) inhibitor (LifeSensors) and 10 mM NEM were added. Next, the lysates were cleared by centrifugation at 14,000 rpm for 15 min followed by filtering through a 0.2 μm filter. […] Pull-downs or IP experiments were done on total protein extracts by incubating protein samples in the lysis buffer overnight with indicated affinity tag or antibody conjugated to agarose or magnetic beads: GFP-trap agarose beads (Chromotek) for GFP fusions; RFP-trap agarose beads (Chromotek) for mCherry fusions; anti-HA magnetic beads (ThermoFisher) for HA tag fusions; anti-DYKDDDDK coupled magnetic agarose (ThermoFisher) for FLAG tag fusions; and glutathione magnetic agarose (ThermoFisher) for GST fusions. Unless otherwise indicated, after pull-down/IP, beads were washed 3 times and proteins were eluted by boiling in the 2×SDS sample buffer. […]

In the case of O=C(O)c1ccccc1O [SA, salicylic acid], the “cell death induced by heat shock, oxidative and DNA damage stresses” value [1] is reported as “significantly suppressed cell death”, the “cell death triggered by in planta expression of AvrRpt2” value [2] is reported as “protect against cell death” and the pathogen growth [3] is reported as “increased pathogen growth”. The “accumulation of ubiquitinated proteins” value [4] was “concentration-dependent accumulation of ubiquitinated proteins”.
